In US11873320B2 (REATA PHARMACEUTICALS HOLDINGS, LLC, priority 2013, dated 2024):

How the values were obtained:
Nrf2 target genes = assay: Nrf2 target gene expression in HFL1 lung fibroblasts (quantitative PCR); format: cell-based, human; conditions: 18 hours
[1] = system: Nrf2 protein expression in SK-N-SH cells; assay: in-cell western NQO1 assay, SK-N-SH cells; format: cell-based; conditions: Homo sapiens, 72 h, 3 days incubation, read-out: EC50 for induction of Nrf2 protein expression in SK-N-SH cells
Method: HMOX1 protein was not detected in untreated or RTA 408-treated SH-SY5Y cells. […] The same amount of 63170 (54.6 nM) was required.
The EC50 was measured using an in-cell western NQO1 assay where the cells were incubated with the compound under evaluation for 3 days. After incubation with the compound of interest, the cells were reacted with mouse NQO1 antibody and then the next day the cells were reacted with IRDye-800CW-anti-mouse IgG antibody. The target signals were visualized and then analyzed.

Sprague Dawley rats = assay: 14-day rat toxicity study (tissue distribution, Nrf2 targets)
[2] = system: TNFα-induced NF-κB activation; assay: TNFα-induced NF-κB luciferase reporter, HeLa/NF-κB-Luc cells; format: cell-based; conditions: Homo sapiens, 1 h pretreatment, TNFα 10 ng/mL 5 h
Text: (§1) NF-κB is a transcription factor that plays a central role in the regulation of many immune and inflammatory responses.

H6PD, PGD, TKT, ME1 mRNA = assay: expression of genes involved in NADPH synthesis, HCT-116 cells; format: cell-based; conditions: 24 hours
CYP3A4 = assay: CYP450 induction in cultured human hepatocytes: CYP3A4; format: in vitro ADME; conditions: up to 3 μM
phosphorylation of IκBα = assay: TNFα-induced phosphorylation of IκBα in HeLa cells (Western blot); format: cell-based, human; conditions: 6 h pretreatment, TNFα 20 ng/mL 5 min
Method: Total and phosphorylated levels of IκBα were evaluated by Western blot.

[3] = mouse tissue distribution, 25 mg/kg PO QD×3
[4] = system: LPS-induced pulmonary inflammation; assay: LPS-induced pulmonary inflammation in mice, first study (QD×3); format: in vivo, mouse
Method: Animals were sacrificed 20 hours after LPS administration. BALF was examined for pro-inflammatory cytokine expression.

CYP2B6 = assay: CYP450 induction in cultured human hepatocytes: CYP2B6; format: in vitro ADME; conditions: up to 3 μM
CD rats = assay: neurobehavioral evaluation in rats (FOB); format: in vivo, rat
Method: One additional group of 10 animals/sex served as the control and received vehicle (sesame oil).
Observations for morbidity, mortality, injury, and availability of food and water were conducted twice daily for all animals. Observations for clinical signs were conducted prior to dosing on Day 1 and following each functional observational battery (FOB) evaluation. FOB evaluations were conducted pre-dose (Day −1) and at approximately 4 and 24 hours post-dose. Body weights were measured and recorded pre-dose on Day 1.

NQO1 and HMOX1 protein = assay: Nrf2 target protein levels in BV2 cells; format: cell-based, mouse; conditions: concentrations up to 125 nM
[5] = topical administration pharmacokinetics in rats; format: in vivo, rat; conditions: 0.01 to 3% in sesame oil
Text: The topical administration was formulated as a suspension in sesame oil.

NQO1 [6] = assay: NQO1 activity in mouse tissues, 25 mg/kg PO QD×3; format: in vivo
[7] = system: cigarette smoke-induced COPD; assay: cigarette smoke-induced COPD in mice; format: in vivo, mouse
Method: At the end of the study, lung tissue and BALF were collected for analysis of inflammatory infiltrates and cytokines. […] An AIM analog (63355) was tested in the same study for comparison. 63355 is a compound of the formula: […]

LPS-induced sepsis = conditions: mouse, in vivo
NQO1 [8] = assay: NQO1 enzymatic activity in RAW264.7 cells; format: cell-based, mouse; conditions: 24 hours
Method: Consistent with induction of Nrf2 target genes and corresponding protein products, treatment of RAW264.7 mouse macrophage cells for 24 hours increased NQO1 enzymatic activity in a dose-dependent manner, with increases evident at 7.8 nM (FIG. 6).

[9] = system: TNFα-induced NF-κB activation; assay: TNFα-induced NF-κB luciferase reporter, A549/NF-κB-Luc cells; format: cell-based; conditions: Homo sapiens
Text: as §1

[10] = metabolism in human liver microsomes
[11] = metabolism in monkey liver microsomes; conditions: 60-minute incubation, NADPH and UGT
[12] = 10 mg/kg, four hours after final dose, Day 14

CC1(C)CC[C@]2(NC(=O)C(C)(F)F)CC[C@]3(C)[C@H](C(=O)C=C4[C@@]5(C)C=C(C#N)C(=O)C(C)(C)[C@@H]5CC[C@]43C)[C@@H]2C1 [RTA 408, N-((4aS,6aR,6bS,8aR,12aS,14aR,14bS)-11-cyano-2,2,6a,6b,9,9,12a-heptamethyl-10,14-dioxo-1,2,3,4,4a,5,6,6a,6b,7,8,8a,9,10,12a,14,14a,14b-octadecahydropicen-4a-yl)-2,2-difluoropropanamide]
concentration at which induction of NQO1, HMOX1, GCLM, TXNRD1 is evident (Nrf2 target genes): ≤ 15.6 nM | EC50 [1]: 56.4 nM | brain exposure over in vitro IC50 for NO inhibition (Sprague Dawley rats; [12]): 240 fold | lung exposure over in vitro IC50 for NO inhibition (Sprague Dawley rats; [12]): 294 fold | toxicity finding in the high dose group (Sprague Dawley rats; 100 mg/kg, tissues collected on Day 6): observed toxicities | liver NQO1 and GST enzyme activities (Sprague Dawley rats; PO QD×14): induced dose-dependently | IC50 [2]: 517 ± 83 nM | mRNA levels of H6PD, PGD, TKT, ME1 (H6PD, PGD, TKT, ME1 mRNA): dose-dependent increase in expression of genes involved in NADPH synthesis | induction of enzyme activity (CYP3A4): not an inducer | TNFα-induced phosphorylation of IκBα (phosphorylation of IκBα): inhibited TNFα-induced phosphorylation of IκBα in a dose-dependent manner | levels in the CNS [3]: Notable levels were observed in the CNS | TNFα in BALF ([4]; 100 and 150 mg/kg doses): significant reduction | IL-12p40 in BALF ([4]; all doses (30, 100, 150 mg/kg)): significant reduction | induction of enzyme activity (CYP2B6): not an inducer | body weight gain approximately 24 hours after dosing (CD rats; 30 mg/kg): Slight decreases in body weight gain | basic neurobehavioral endpoints (CD rats; doses up to and including 30 mg/kg, single oral dose): did not produce any adverse effects | NQO1 and HMOX1 protein levels (NQO1 and HMOX1 protein): increased NQO1 and HMOX1 protein levels | plasma concentrations after topical administration [5]: lower plasma concentrations relative to similar oral dosing | activation of NQO1 in multiple tissues (NQO1 [6]): Meaningful activation of NQO1 | lung Txnrd enzyme activity ([7]; 30 mg/kg): induced | pro-inflammatory cytokines including KC and TNFα ([7]; doses as low as 3 mg/kg, two weeks): significant suppression of pro-inflammatory cytokines | lung Gsr enzyme activity ([7]; mouse, in vivo): not altered | lung Gst enzyme activity ([7]; mouse, in vivo): decreased with treatment | lung NQO1 enzyme activity decreased by cigarette smoke ([7]; mouse, in vivo): rescued this loss | survival, systemic LPS (LPS-induced sepsis): improved survival | concentration at which increase in NQO1 enzymatic activity is evident (NQO1 [8]): 7.8 nM | IC50 [9]: 627 nM | unique human metabolites [10]: No unique human metabolites | parent molecule remaining ([10]; 60-minute incubation, NADPH and UGT): < 10% | parent molecule remaining [11]: < 10%
